Entries after “also recorded” stand apart in the source; their conditions may differ. Where no end group is shown, it is not given here.
Experiments:
sFRP-1 [1] = assay: ELISA of peptide/alkaline phosphatase fusion proteins binding to sFRP-1; set-up: species or system human; conditions: bacterial broths, sFRP-1-coated versus BSA-coated wells, pNPP at 405 nm
Protocol: Synthetic oligonucleotides encoding peptides of interest were ligated into the bacterial alkaline phosphatase fusion vector, pMY101, which had been digested with Sal I and Xho I (Yamabhai and Kay, Anal Biochem. 247:143-151, 1997). All recombinants were confirmed by DNA sequence analysis. Bacteria (E. coli, strain DH5αF′) transformed with the peptide/AP constructs were grown in Luria broth containing ampicillin (50 μg/mL) to an optical density of 0.5 (at 600 nm), treated with 1 mM isopropyl-β-D-thiogalactopyranoside and then incubated overnight at 37° C. Conditioned medium containing peptide/AP chimera was recovered by centrifugation at 7000 g for 15 minutes. Chimeric proteins in conditioned medium were stable when stored for a few weeks at 4° C. or for several months when stored at −80° C.
ELISA experiments were generally performed as previously described (Uren et al., J. Biol. Chem. 275:4374-4382, 2000), with modifications depending on the sFRP binding partner to be tested. Typically, wells were coated with 0.5 or 1 μg of sFRP-1, blocked with BSA (0.2%, 1%, or 4%) and then incubated with putative binding partner overnight at room temperature. When investigating the binding of peptide/AP chimeras, after aspiration of bacterial broths, wells were washed and incubated with p-nitrophenolphosphate (pNPP). Color development was determined at 405 nm with an ELISA reader. […] Following overnight incubation at room temperature, RANKL solutions were aspirated and bound RANKL was detected by sequential incubations with primary antibody to RANKL, secondary antibody coupled with AP and pNPP. […]
A set of peptide-alkaline phosphatase fusion proteins containing the peptide motifs (SEQ ID NOS: 14, 11, and 27) were generated. […] This qualitative difference between A-C2 (SEQ ID NO: 14), A-E4 (SEQ ID NO: 1), and B-B9 (SEQ ID NO: 27) derivatives was consistent with a quantitative difference noted during the ELISA screening of the respective phage. […]

sFRP-1 [2] = assay: Competition ELISA: soluble peptides against peptide/AP chimera binding to sFRP-1; set-up: species or system human; conditions: for inhibition of A-D9/AP chimera binding to sFRP-1: soluble peptide; for inhibition of A-C2/alkaline phosphatase fusion protein binding to sFRP-1: soluble peptide preincubated 30 min with chimera
Protocol: (§1) ELISA experiments were generally performed as previously described (Uren et al., J. Biol. Chem. 275:4374-4382, 2000), with modifications depending on the sFRP binding partner to be tested. Typically, wells were coated with 0.5 or 1 μg of sFRP-1, blocked with BSA (0.2%, 1%, or 4%) and then incubated with putative binding partner overnight at room temperature. When investigating the binding of peptide/AP chimeras, after aspiration of bacterial broths, wells were washed and incubated with p-nitrophenolphosphate (pNPP). Color development was determined at 405 nm with an ELISA reader. For competition experiments, soluble peptides were preincubated with peptide/AP chimeras in bacterial broth for 30 min at room temperature prior to transfer into ELISA wells coated with sFRP-1 or BSA. When testing RANKL binding to sFRP-1, serial dilutions of soluble RANKL were assayed in replicate. Following overnight incubation at room temperature, RANKL solutions were aspirated and bound RANKL was detected by sequential incubations with primary antibody to RANKL, secondary antibody coupled with AP and pNPP. Similar experimental designs were employed when other TNFα family members were examined for binding to sFRPs, and when sFRP-1 derivatives or sFRP-2 were the binding targets for RANKL.

RAW264.7 cells [3] = assay: RANKL-induced osteoclast formation in RAW264.7 cells; assay type: cell-based; conditions: RANKL 50 ng/mL, T cells added; 5, 1 and 0.5 μg/mL
Protocol: (§2) In some instances, experiments were performed either with adult mouse spleen cells or with RAW264.7 cells treated with M-CSF and RANKL as described in Quinn et al., Endocrinology 139:4424-4427, 1998. Where indicated, these assays were conducted in the presence or absence of splenic T cells. T cell fractions were prepared as described in Horwood et al., Journal of Clinical Investigation 101:595-603, 1998.
(§3) The effect of bacterially expressed CRD was assessed in three different cell culture models of osteoclast formation. These were: (1) bone marrow cells+RANKL+M-CSF, (2) the macrophage/monocyte cell line RAW264.7+RANKL, and (3) RAW264.7+TNFα+TGFβ (Horwood et al., Journal of Immunology 166:4915-4921, 2001; Quinn et al., Journal of Bone and Mineral Research. 16, 1787-1794, 2001).

[4] = system: co-cultures of primary osteoblasts and adult spleen cells; assay: Osteoclastogenesis co-culture of primary osteoblasts and adult spleen cells (TRAP+ cells); assay type: cell-based, mouse; conditions: for effect on TRAP+ multinucleated cells (osteoclast formation): 5 μg/mL with optimal doses of vitamin D3 (10^-8 M) and PGE2 (10^-7 M)
Protocol: Osteoblastic cells were prepared from the calvaria of newborn mice by digestion with 0.1% collagenase (Worthington Biochemical Co., Freefold, […]) and 0.2% dispase (Godo Shusei, Tokyo, Japan). […] Exp. Med. 182: 1461-1468, 1995). Osteoblastic cells were co-cultured with bone marrow or spleen cells as described previously (Udagawa et al., J. Exp. Med. 182: 1461-1468, 1995). In short, primary osteoblastic cells (2×10^4/well) and nucleated spleen cells (1×10^6/well) or marrow cells (5×10^5/well) were co-cultured in 48-well plates (Corning Glass Inc., Corning, N.Y.) with 0.4 mL of α-MEM (GIBCO/BRL, Grand Island, N.Y.) containing 10% fetal bovine serum (Cytosystems, Castle Hill, NSW, Australia) in the presence of test chemicals. Cultures were incubated in quadruplicate and cells were replenished on day 3 with fresh medium. Osteoclast formation was evaluated after culturing for 6-7 days. Adherent cells were fixed and stained for tartrate-resistant acid phosphatase (TRAP), and the number of TRAP-positive osteoclasts was scored as described (Udagawa et al., J. Exp. Med. 182: 1461-1468, 1995). For TRAP staining, adherent cells were fixed with 4% formaldehyde in PBS for 3 minutes. After treatment with ethanol-acetone (50/50, vol/vol) for 1 minute, the well surface was air dried and incubated for 10 minutes at room temperature in an acetate buffer (0.1 M sodium acetate, pH 5.0) containing 0.01% naphthol AS-MX phosphate (Sigma) as a substrate and 0.03% red violet LB salt (Sigma) as a stain for the reaction product in the presence of 50 mM sodium tartrate. TRAP-positive cells appeared dark red, and those with three or more nuclei were scored as multinucleated and considered as osteoclasts. Validation of osteoclast formation was achieved using the specific marker of calcitonin receptor (CTR) expression and bone resorption. CTR expression was determined either by autoradiography with ^125I-salmon calcitonin or by immunohistochemical localization using an array of antibodies we have developed as described by Quinn et al., Bone 25:1-8, 1999.

adult mouse spleen cells = assay: RANKL and M-CSF induced osteoclast formation from adult mouse spleen cells; assay type: cell-based
Protocol: as §2

[5] = system: AC2/alkaline phosphatase chimera; assay: ELISA of sFRP-1 deletion mutants binding to AC2/alkaline phosphatase chimera; conditions: sFRP-1 deletion mutants coated on ELISA wells
Protocol: as §1, with “When testing RANKL binding to sFRP-1, serial dilutions of soluble RANKL were assayed in replicate.” left out, “Similar experimental designs were employed when other TNFα family members were examined for binding to sFRPs, and when sFRP-1 derivatives or sFRP-2 were the binding targets for RANKL.” left out
ELISA experiments were performed essentially as described above with a series of sFRP-1 deletion mutants (in Uren et al., J. Biol. Chem., 275: 4374-4382, 2000) to determine what region(s) of the protein were required for binding to the AC2/alkaline phosphatase chimera. […] Little binding was detected with derivatives that contained the CRD alone or the C-terminal region alone.

RANKL = target: T1, RANKL (Homo sapiens, UniProt O14788); assay: ELISA of soluble RANKL binding to wells coated with sFRP-1, sFRP-1 derivatives or sFRP-2; conditions: ELISA, coated wells versus BSA
T1 construct: For ELISA assays, recombinant soluble RANKL and TRAIL, and antibodies directed against these proteins were obtained from PeproTech; purchased PeproTech (Rocky Hill, N.J.)
T1 sequence (O14788 140-317): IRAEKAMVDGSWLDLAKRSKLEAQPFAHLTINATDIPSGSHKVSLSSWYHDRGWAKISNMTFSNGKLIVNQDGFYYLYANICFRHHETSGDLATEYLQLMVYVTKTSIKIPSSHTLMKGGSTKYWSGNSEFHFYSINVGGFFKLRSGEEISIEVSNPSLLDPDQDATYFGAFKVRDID
Protocol: as §1
The possibility that sFRP-1 (SEQ ID NO: 3) and RANKL interact directly with each other was tested using an ELISA assay. […] RANKL was then incubated in these wells and in adjacent wells that had only been treated with BSA.

RAW264.7 cells [6] = assay: RANKL-independent (TNFα-dependent) osteoclast formation in RAW264.7+TNFα+TGFβ; assay type: cell-based; conditions: present during the first three days of culture
Protocol: The effect of sFRP-1 was assessed upon a RANKL-independent method of osteoclast formation using the monocyte/macrophage cell line RAW264.7 (Quinn et al., Journal of Bone and Mineral Research. 16, 1787-1794, 2001) and was compared with that of osteoprotegerin (FIG. 14).
as §3

“A-C2 (SEQ ID NO: 14)/alkaline phosphatase fusion protein: A-C2 peptide fused to bacterial alkaline phosphatase (QGTLVDGRWLQL; also: fused to bacterial alkaline phosphatase)” was tested. Which “specific binding of peptide/alkaline phosphatase fusion protein to sFRP-1” value (sFRP-1 [1]) did it give?
The value was “strong, highly specific binding”.

With “A-D9/AP chimera: A-D9 peptide fused to alkaline phosphatase (WECAMYDGRCLT; cysteine pairing not given here; also: fused to alkaline phosphatase)” as the molecule, how does the “specific binding of peptide/alkaline phosphatase fusion protein to sFRP-1” value (sFRP-1 [1]) read?
The value was “bound specifically”.

Which “specific binding of peptide/alkaline phosphatase fusion protein to sFRP-1” value (sFRP-1 [1]) does the source give for “Alkaline phosphatase: alkaline phosphatase itself, control for the fusion proteins [reference compound]” here?
Its value is “no preferential binding”.

For QGTLVDGRWLQL [A-C2], which “inhibition of A-D9/AP chimera binding to sFRP-1” value (sFRP-1 [2]) is on record?
The value was “could inhibit binding”.

And the “inhibition of A-C2/alkaline phosphatase fusion protein binding to sFRP-1” value (sFRP-1 [2])?
The value was “dose-dependent inhibition”.

And the “stimulation of TRAP+ multinucleated cell differentiation” value (RAW264.7 cells [3])?
Its value is “dose-dependent stimulation”.

And the “effect on TRAP+ multinucleated cells (osteoclast formation)” value [4]?
The value was “ten-fold increase; also recorded: markedly stimulated”.

And the “time window of the effect on osteoclast formation” value ([4]; peptide present for different periods of the culture)?
The value was “only had an effect on osteoclast formation when it was present during day 0 to day 3”.

And the “effect on osteoclast formation, T cells removed” value (adult mouse spleen cells; T cells removed from adult spleen cells with antibody-coupled magnetic beads)?
The value was “no additional response”.

What about the “effect on osteoclast production” value (adult mouse spleen cells; peptide present during days 0-3, RANKL 50 ng/mL and M-CSF 25 ng/mL) of the same molecule?
The value was “caused an increase in osteoclast production”.

For “WECAMYDGRCLT (Peptide that binds sFRP) [A-D9]”, which “inhibition of A-D9/AP chimera binding to sFRP-1” value (sFRP-1 [2]) is on record?
The value was “blocked in a dose-dependent manner”.

And the “inhibition of A-C2/alkaline phosphatase fusion protein binding to sFRP-1” value (sFRP-1 [2])?
Its value is “inhibited binding”.

B1: Δ3 derivative: sFRP-1 deletion mutant containing all of the Fz CRD and a portion of the C-terminal region (protein)
chain: MGIGRTEGGRRGAALGVLLALGGASGRGLGSEYDYVSFQSDIGPYQSGRFYTKPPQCVDIPADLRLCHNVGYKKMVLPNLLEHETMAEVKQQASSWVPLLNKNCHAGTQVFLCSLFAPVCLDRPIYPCRWLCEAVRDSCEPVMQFFGFYWPEMLKCDKFPEGDVCIAMTPPNATEASKPQGTTVCPPCDNELKSEAIIEHLCASEFALRMKIKEVKKENGDKKIVPKKKKPLKLGPIKKKDLQAYVEQKLISEEDLNSAVDHHHHHH
modifications: Fusion protein
notes: sFRP-1 deletion mutant containing all of the Fz CRD and a portion of the C-terminal region
For B1, which “binding to the AC2/alkaline phosphatase chimera” value [5] is on record?
The value was “Optimal binding”.

B2: Al derivative: sFRP-1 deletion mutant that consists essentially of the Fz CRD (protein)
chain: MGIGRTEGGRRGAALGVLLALGGASGRGLGSEYDYVSFQSDIGPYQSGRFYTKPPQCVDIPADLRLCHNVGYKKMVLPNLLEHETMAEVKQQASSWVPLLNKNCHAGTQVFLCSLFAPVCLDRPIYPCRWLCEAVRDSCEPVMQFFGFYWPEMLKCDKFPEGDVCIAMTPQAYVEQKLISEEDLNSAVDHHHHHH
modifications: Fusion protein
notes: sFRP-1 deletion mutant that consists essentially of the Fz CRD
Which “binding to RANKL” value (RANKL) does the source give for B2 here?
The value was “retained good binding”.

B3: NHD: netrin homology domain of sFRP-1 (protein, listed as Homo sapiens)
chain: CIAMTPPNATEASKPQGTTVCPPCDNELKSEAIIEHLCASEFALRMKIKEVKKENGDKKIVPKKKKPLKLGPIKKKDLKKLVLYLKNGADCPCHQLDNLSHHFLIMGRKVKSQYLLTAIHKWDKKNKEFKNFMKKMKNHEC
For B3, which “effect on TRAP+ multinucleated cells (osteoclast formation)” value [4] is on record?
The value was “not further enhanced”.

B4: OPG: osteoprotegerin, soluble TNF receptor family factor that binds RANKL (protein, UniProt O00300 22-401, looked up)
Tumor necrosis factor …: ETFPPKYLHYDEETSHQLLCDKCPPGTYLKQHCTAKWKTVCAPCPDHYYTDSWHTSDECLYCSPVCKELQYVKQECNRTHNRVCECKEGRYLEIEFCLKHRSCPPGFGVVQAGTPERNTVCKRCPDGFFSNETSSKAPCRKHTNCSVFGLLLTQKGNATHDNICSGNSESTQKCGIDVTLCEEAFFRFAVPTKFTPNWLSVLVDNLPGTKVNAESVERIKRQHSSQEQTFQLLKLWKHQNKDQDIVKKIIQDIDLCENSVQRHIGHANLTFEQLRSLMESLPGKKVGAEDIEKTIKACKPSDQILKLLSLWRIKNGDQDTLKGLMHALKHSKTYHFPKTVTQSLKKTIRFLHSFTMYKLYQKLFLEMIGNQVQSVKISCL
With B4 as the molecule, how does the “effect on TNFα-dependent osteoclast formation” value (RAW264.7 cells [6]) read?
Its value is “no effect”.

Source: patent US8334260B2, “sFRP and peptide motifs that interact with sFRP and methods of their use” (The United States of America as represented by the …, priority 2001, dated 2012)
